The values that follow come from patent US20060052298A1, “Use of stable glutamine derivatives to improve drug absorption” (priority 2002, published 2006).

Like-named read-outs stand apart in the source and are kept apart here. Peptide text beside a SMILES is read from it.

Data set [1] is described as follows: 2-hour (peak) antiretroviral drug levels in blood. Particulars: for concentration at 2 h: blood, po, mean 2-hour drug level, oral ARV therapy; for number of patients whose AZT levels did not improve (of eight): 14 patients taking AZT; for number of patients with an increase in their D4T levels / number of patients who did not increase their D4T levels: 15 patients on D4T; for number of patients whose 3TC levels did not improve / number of patients whose 3TC levels improved with therapy: 18 patients on 3TC; for drug levels improved, all ARV drugs including NNRTI and PI / mean percent improvement in antiretroviral drug levels / peak paired NRTI levels improved: after 7 days of study drug. The source says: HUV positive patients on therapy presenting at the Hospital Sao Jose with diarrhea (≧3 stools/day×14 days) and wasting (loss of ≧10% of their body weight) from March 2001 to April 2002, were invited to participate. After informed consent, patients were assigned to one of four equi-nitrogenous blinded study groups including glycine controls (FIG. 1). Group A received 46 gm of oral glycine/day (Spectrum, Gardena, Calif.). Group B received 30 gm of oral glutamine/day (Cambridge Neutraceuticals, Cambridge, Mass.) and 15 gm of glycine, Group C received 4 grams alanyl-glutamine (Degussa/Creanova, Parsippany, N.J.) and 42 gm of glycine and Group D received 44 gm of alanyl-glutamine (Ala-Gln). The 44 gm alanyl-glutamine dose was calculated to contain equimolar glutamine to 30 gm of glutamine, and glycine was added to glutamine and low dose alanyl-glutamine groups to equalize the amount of nitrogen received by all participants.
Antiretroviral drug levels were determined at Tibotec-Virco, Mechelen, Belgium. Peak values were determined for each drug, and drug level ranges supplied by the manufacturer were used to define low levels. Viral genotype was determined by DNA sequencing at Visible Genetics, Suwanee, Ga. […] Two-tailed statistical analyses for comparison of paired values included Student's t-test and ANOVA and expressed as […] the standard deviation. Chi-square test or Fisher Exact test were used to compare proportions.

In data set [2] the test system is salt and water absorption. As to conditions: compared with glucose; cited from earlier work.
The conditions of data set [3]: compared with glutamine; cited from earlier work.
The subject of data set [4] is HIV positive patients with diarrhea and wasting. Put plainly: Clinical response by diarrhea frequency and consistency in AIDS patients with diarrhea and wasting. It counts as in vivo, human. Particulars: 7 days; high dose Ala-Gln 44 gm/day; glycine controls 46 gm/day. An excerpt:
Patients were asked daily about the frequency and consistency of their diarrhea and other gastrointestinal complaints including anorexia, vomiting, and abdominal cramping. Changes in frequency of diarrhea was scored as 0 if the total number of stools in the second half of the 9-day study was less than 2 fewer (or greater) than the number in the first half of the study (including the 2 days before study treatment was started); scored as − or +1 if stool frequencies were reduced or increased by 2 to 3, respectively; and − or +2 if the frequencies were reduced or increased by >3, respectively. In addition, consistencies were graded as liquid, soft or formed and scored as 0, 1 or 2 respectively and changes were added to the frequency scores above. Intestinal permeability was measured by urinary excretion of lactulose, mannitol and their ratio as previously described (Lima et al., Am J Gastroenterol 1997; 92(10):1861-1866). Lactulose and mannitol in urine was determined by high performance liquid chromatography (HPLC) and at Great Smokies Diagnostic Laboratory, Asheville, N.C.

Data set [5] deals with small intestinal epithelial crypt cells (line IEC-6). The experiment in a line: IEC-6 cell migration after wounding (restitution model). Format: cell-based. As to conditions: IEC-6 cells, 2.5 mmol/liter. An excerpt:
In 1992, McCormack et al. established a model to study the process of cell migration involved in the early restitution of mucosal erosion. […] This model system is used in the present invention in order to show the important effect of stable glutamine derivatives on intestinal epithelial restitution. To investigate the ability of glutamine and stabilized glutamine derivatives to enhance the healing of mucosal tissues, a model system based on the migration of small intestinal epithelial crypt cells (line IEC-6) was used. The small epithelial crypt cell line (IEC-6 cells) was obtained from the American Type Culture Collection (Rockville, Md.). The medium consisted of Dullbecco's modified Eagle medium (DMEM) with 5% heat-inactivated FBS and 10 μg insulin and 50 μg gentamicin sulfate per milliliter. For the experiments, the cells were taken up with 0.25% trypsin plus 2.65 mM EDTA and plated at 6.25×10^4 cell/cm^2 in 35 mm dishes thinly coated with Matrigel according to the manufacturer's instructions. The cells were fed every other day. To initiate migration, the cell layer was scratched with a single razor blade cut to approximately 27 mm in length. The scratch began at the diameter of the dish and extended over an area 7 to 10 mm wide. After the scratch, the cells were washed twice with sterile PBS. Then, medium containing no supplemental substances or medium containing glutamine or alanyl-glutamine (2.5 mmol/liter) was replaced, and the dishes were returned to the incubator. The experiments were carried out in triplicate. After 6 hours, 8 hours, and 24 hours, the dishes were removed from the incubator, and photographed using an inverted phase contrast microscope attached with camera The migration cells in five contiguous 0.1-mm squares were counted at ×100 magnification beginning at the scratch line and extending as far out as the cells had migrated. The counting was done in the area of the highest migration rate by means of an eyepiece reticle.

In data set [6] the test system is intestinal permeability. Particulars: over 28 days, cited from earlier work.
The mark [7] stands for this setting: all study groups together, 18 on 3TC, 15 on D4T, 14 on AZT.
The mark [8] stands for this setting: human, controls without diarrhea or wasting.
Setting [9] is: human, study patients with diarrhea and wasting.
The mark [10] stands for this setting: study patients with diarrhea and wasting.
The mark [11] stands for this setting: high dose Ala-Gln, control group.
Where [12] appears, read: high dose Ala-Gln, Gln, glycine.
Where [13] appears, read: high dose Ala-Gln 44 gm/day, Gln 30 gm/day (+15 gm glycine), glycine 46 gm/day.
The mark [14] stands for this setting: high dose Ala-Gln 44 gm/day, Gln 30 gm/day (+15 gm glycine), glycine controls 46 gm/day.
The mark [15] stands for this setting: low dose Ala-Gln 4 grams/day (+42 gm glycine).

For the molecule `Nc1ccn([C@@H]2CS[C@H](CO)O2)c(=O)n1` [3TC, lamivudine, reference compound], the “number of patients whose level of this ARV drug improved with therapy” value (“number of patients whose level … with therapy” for short) in data set [1] (setting [7]) is listed as 10. In addition, the concentration at 2 h in data set [1] (setting [8]) came out at 2810 ng/mL; in data set [1] (setting [9]) it was 1500 ng/mL. For the same molecule, the “patients with drug levels below the expected range, in words” value (from here on “patients … in words”) in data set [1] (setting [10]) was “All”.
Consider `Cc1cn([C@H]2C[C@H](N=[N+]=[N-])[C@@H](CO)O2)c(=O)[nH]c1=O` [AZT, zidovudine, reference compound], for which the “number of patients whose level … with therapy” value in data set [1] (setting [7]) is given as “six”.
On to `C[C@H](N)C(=O)N[C@@H](CCC(N)=O)C(=O)O` [Ala-Gln, alanyl-glutamine] (H-Ala-Gln-OH), for which, in data set [2], the “drive of salt and water absorption” value is listed as “comparable to, if not better, than glucose”. For the same molecule, in data set [3], the “stability in acidic water solutions” value is reported as “much more stable”. The “patients improved (diarrhea frequency and consistency)” value in data set [4] stood at 89%. The “number of patients whose AZT levels did not improve (of eight)” value in data set [1] (setting [11]) came out at 1; in data set [1] (low dose Ala-Gln), 3. For the same molecule, the “number of patients with an increase in their D4T levels” value in data set [1] (high dose Ala-Gln) and in data set [1] (low dose Ala-Gln) was 3 in each case. In addition, the figures for the “number of patients who did not increase their D4T levels” value in data set [1] (setting [12]) and in data set [1] (low dose Ala-Gln) were 1 and 2, respectively. The “number of patients whose 3TC levels did not improve” value in data set [1] (setting [12]) was “none”; in data set [1] (low dose Ala-Gln), 3. Besides, the “number of patients whose 3TC levels improved with therapy” value in data set [1] (setting [12]) came out at 2; in data set [1] (low dose Ala-Gln) it was 4. The “drug levels improved, all ARV drugs including NNRTI and PI” value (“drug levels improved” below) in data set [1] (setting [13]) came out at 63%; in data set [1] (setting [15]), 50%. Further, the entries for the “mean percent improvement in antiretroviral drug levels” value (“mean percent improvement” below) in data set [1] (setting [14]) and in data set [1] (setting [15]) were 113% and 8%, respectively. In addition, the figures for the “peak paired NRTI levels improved” value in data set [1] (setting [14]) and in data set [1] (setting [15]) were 75% and 55%, respectively. In addition, the “cell migration compared to control” value in data set [5] (6 hours, 8 hours, and 24 hours after the scratch) is recorded as “significantly enhanced cell migration”. Further, the results for the “cell migration increase related to control” value in data set [5] (8 hours after the scratch) and in data set [5] (24 hours after the scratch) were 107% and 173%, respectively. Further, the “enhancement of cell migration, more than glutamine” value in data set [5] (after 6 hours) came out at 46%; in data set [5] (after 8 hours), 55%.
Turning to `NC(=O)CC[C@H](N)C(=O)O` [Gln, glutamine], in data set [6] (4 g/day), the intestinal permeability entry was “less worsening”. Moreover, in data set [6] (8 g/day), the absorption of mannitol entry is “improved” and the intestinal permeability result is “stabilization”. Also, in data set [1] (setting [12]), the “number of patients who did not increase their D4T levels” value came out at 3, the “number of patients whose 3TC levels did not improve” value came out at 2 and the “number of patients whose 3TC levels improved with therapy” value amounted to 2. The “drug levels improved” value in data set [1] (setting [13]) came out at 57%. In addition, in data set [1] (setting [14]), the “mean percent improvement” value is given as 14% and the “peak paired NRTI levels improved” value is 64.3%.
`O=c1[nH]cnc2c1ncn2[C@H]1CC[C@@H](CO)O1` [ddI, didanosine, reference compound]: the concentration at 2 h in data set [1] (setting [8]) came to 737 ± 226 ng/mL; in data set [1] (setting [9]), 397 ± 151 ng/mL. The “patients … in words” value in data set [1] (setting [10]) is “All”.
Take `O=C1Nc2ccc(Cl)cc2[C@@](C#CC2CC2)(C(F)(F)F)O1` [efavirenz, reference compound]: the “patients with drug levels below the expected range (low drug levels)” value (“patients … (low drug levels)” below) in data set [1] (setting [10]) is 85%.
On to `NCC(=O)O` [glycine, reference compound], for which the “patients improved (diarrhea frequency and consistency)” value in data set [4] amounted to 38%. In addition, the “number of patients whose AZT levels did not improve (of eight)” value in data set [1] (setting [11]) is “half”. In data set [1] (setting [12]), the “number of patients who did not increase their D4T levels” value amounted to 2, the “number of patients whose 3TC levels did not improve” value turned out to be 3 and the “number of patients whose 3TC levels improved with therapy” value came to 2. In data set [1] (setting [13]), the “drug levels improved” value is reported as 20%. Further, in data set [1] (setting [14]), the “mean percent improvement” value is recorded as −32% and the “peak paired NRTI levels improved” value worked out at 15.4%.
As for `Cc1c(O)cccc1C(=O)N[C@@H](CSc1ccccc1)[C@H](O)CN1C[C@H]2CCCC[C@H]2C[C@H]1C(=O)NC(C)(C)C` [nelfinavir, reference compound], the “patients … (low drug levels)” value in data set [1] (setting [10]) came to 44%.
Consider `CC(C)c1nc(CN(C)C(=O)N[C@H](C(=O)N[C@@H](Cc2ccccc2)C[C@H](O)[C@H](Cc2ccccc2)NC(=O)OCc2cncs2)C(C)C)cs1` [ritonavir, reference compound], for which the “patients … in words” value in data set [1] (setting [10]) was “All”.
Take `CC(C)(C)NC(=O)[C@@H]1C[C@@H]2CCCC[C@@H]2CN1C[C@@H](O)[C@H](Cc1ccccc1)NC(=O)[C@H](CC(N)=O)NC(=O)c1ccc2ccccc2n1` [saquinavir, reference compound]: the “patients … in words” value in data set [1] (in vivo) was “All”.
Turning to `Cc1cn([C@H]2C=C[C@@H](CO)O2)c(=O)[nH]c1=O` [stavudine, reference compound], the “patients … (low drug levels)” value in data set [1] (human, in vivo, 2 h) was 20%. The “number of patients whose level … with therapy” value in data set [1] (in vivo) was “seven”.
